Earlier results as cited in US6545056B1, “Aryl nitrone therapeutics and methods for treating inflammatory bowel disease” (Centaur Pharmaceuticals, Inc., priority 1999, dated 2003).

Tested on: senescence-accelerated mice

In the case of `CC(C)(C)/[N+]([O-])=C/c1ccccc1` [PBN, α-phenyl-t-butyl nitone], the “increase of the life span” value is listed as “one third”.
